Data: ChEMBL document CHEMBL1909046, “DrugMatrix in vitro pharmacology data”

Columns and labels:
[1] = molecular target: Beta-3 adrenergic receptor (Homo sapiens, UniProt P13945); assay: DRUGMATRIX: Adrenergic beta3 radioligand binding (ligand: [125I] Cyanopindolol); assay type: cell membranes, HEK293, Membrane; conditions: Not Active = under 50% inhibition at 10 µM
[2] = molecular target: T1, Type-2 angiotensin II receptor (Homo sapiens, UniProt P50052); assay type: cell-based; conditions: cho-k1; further: in other assays of this panel Not Active means under 50% inhibition at 10 µM
T1 sequence (P50052 whole entry): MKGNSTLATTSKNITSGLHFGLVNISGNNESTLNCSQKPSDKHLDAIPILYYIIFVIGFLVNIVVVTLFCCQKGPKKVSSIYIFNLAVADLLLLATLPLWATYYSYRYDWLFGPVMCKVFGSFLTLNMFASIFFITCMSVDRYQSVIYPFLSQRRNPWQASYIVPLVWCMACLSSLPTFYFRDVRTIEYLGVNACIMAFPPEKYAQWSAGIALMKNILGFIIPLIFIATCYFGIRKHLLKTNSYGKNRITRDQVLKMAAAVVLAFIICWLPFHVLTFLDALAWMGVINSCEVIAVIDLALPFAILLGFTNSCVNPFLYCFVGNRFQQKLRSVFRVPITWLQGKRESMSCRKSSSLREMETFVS

B2 bradykinin receptor = molecular target: T2, B2 bradykinin receptor (Homo sapiens, UniProt P30411); assay type: cell membranes, Membrane; conditions: chem-1; further: in other assays of this panel Not Active means under 50% inhibition at 10 µM
T2 sequence (P30411 whole entry): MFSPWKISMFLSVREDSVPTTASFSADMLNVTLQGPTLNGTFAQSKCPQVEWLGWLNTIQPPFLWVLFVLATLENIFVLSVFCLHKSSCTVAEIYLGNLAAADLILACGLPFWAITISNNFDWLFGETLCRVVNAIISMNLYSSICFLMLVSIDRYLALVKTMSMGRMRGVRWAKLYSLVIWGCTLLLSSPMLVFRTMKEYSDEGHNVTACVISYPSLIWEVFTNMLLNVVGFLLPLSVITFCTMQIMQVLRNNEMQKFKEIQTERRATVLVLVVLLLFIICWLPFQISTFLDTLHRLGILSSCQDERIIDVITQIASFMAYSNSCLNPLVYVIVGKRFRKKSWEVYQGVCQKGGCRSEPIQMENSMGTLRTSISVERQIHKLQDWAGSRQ

[3] = DRUGMATRIX: Calcium Channel Type L, Dihydropyridine radioligand binding (ligand: [3H] Nitrendipine); assay type: cell membranes, Rattus norvegicus, Wistar, Cerebral cortex, Membrane; conditions: Not Active = under 50% inhibition at 10 µM
[4] = DRUGMATRIX: Serotonin (5-Hydroxytryptamine) 5-HT3 radioligand binding (ligand: [3H] GR-65630); assay type: cell membranes, Membrane; conditions: hek293; Not Active = under 50% inhibition at 10 µM
Vasopressin V1a receptor = Vasopressin V1a receptor (Homo sapiens, UniProt P37288); assay type: cell membranes, Membrane; conditions: hek293; further: in other assays of this panel Not Active means under 50% inhibition at 10 µM
Vasopressin V1a receptor, sequence (P37288 whole entry): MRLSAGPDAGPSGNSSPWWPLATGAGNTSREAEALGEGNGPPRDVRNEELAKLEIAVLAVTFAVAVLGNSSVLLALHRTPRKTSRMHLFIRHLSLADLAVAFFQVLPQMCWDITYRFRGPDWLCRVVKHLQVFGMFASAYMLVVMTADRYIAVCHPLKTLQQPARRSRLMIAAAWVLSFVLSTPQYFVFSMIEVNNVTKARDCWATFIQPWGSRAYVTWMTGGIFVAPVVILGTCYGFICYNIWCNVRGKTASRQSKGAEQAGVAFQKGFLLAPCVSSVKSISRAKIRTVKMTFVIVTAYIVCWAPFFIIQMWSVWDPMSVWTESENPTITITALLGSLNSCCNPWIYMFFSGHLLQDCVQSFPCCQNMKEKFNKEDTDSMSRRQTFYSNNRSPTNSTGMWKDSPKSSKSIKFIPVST

Carbonic anhydrase 2 = Carbonic anhydrase 2 (Homo sapiens, UniProt P00918); assay: DRUGMATRIX: Carbonic Anhydrase II enzyme inhibition (substrate: 4-Nitrophenyl acetate (4-NPA)); assay type: tissue-based, Erythrocyte; conditions: erythrocyte; Not Active = under 50% inhibition at 10 µM
[5] = molecular target: T3, C-X-C chemokine receptor type 1 (Homo sapiens, UniProt P25024); further: in other assays of this panel Not Active means under 50% inhibition at 10 µM
T3 sequence (P25024 whole entry): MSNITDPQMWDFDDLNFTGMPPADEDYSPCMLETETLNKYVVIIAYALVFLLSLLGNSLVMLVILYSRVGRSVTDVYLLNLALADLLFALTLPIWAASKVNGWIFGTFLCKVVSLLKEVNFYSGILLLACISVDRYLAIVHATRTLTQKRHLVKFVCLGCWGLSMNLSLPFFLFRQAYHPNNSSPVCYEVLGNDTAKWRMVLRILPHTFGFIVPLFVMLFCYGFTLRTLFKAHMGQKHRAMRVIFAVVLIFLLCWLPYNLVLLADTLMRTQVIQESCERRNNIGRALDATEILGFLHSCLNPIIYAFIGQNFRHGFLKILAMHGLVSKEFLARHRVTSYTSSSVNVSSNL

[6] = DRUGMATRIX: Glutamate, AMPA radioligand binding (ligand: [3H] AMPA); assay type: cell membranes, Rattus norvegicus, Wistar, Cerebral cortex, Membrane; conditions: Not Active = under 50% inhibition at 10 µM
Mu-type opioid receptor = Mu-type opioid receptor (Homo sapiens, UniProt P35372); assay: DRUGMATRIX: Opiate mu (OP3, MOP) radioligand binding (ligand: [3H] Diprenorphine); assay type: cell membranes, CHO-K1, Membrane; conditions: cho-k1; Not Active = under 50% inhibition at 10 µM
Mu-type opioid receptor, sequence (P35372 whole entry): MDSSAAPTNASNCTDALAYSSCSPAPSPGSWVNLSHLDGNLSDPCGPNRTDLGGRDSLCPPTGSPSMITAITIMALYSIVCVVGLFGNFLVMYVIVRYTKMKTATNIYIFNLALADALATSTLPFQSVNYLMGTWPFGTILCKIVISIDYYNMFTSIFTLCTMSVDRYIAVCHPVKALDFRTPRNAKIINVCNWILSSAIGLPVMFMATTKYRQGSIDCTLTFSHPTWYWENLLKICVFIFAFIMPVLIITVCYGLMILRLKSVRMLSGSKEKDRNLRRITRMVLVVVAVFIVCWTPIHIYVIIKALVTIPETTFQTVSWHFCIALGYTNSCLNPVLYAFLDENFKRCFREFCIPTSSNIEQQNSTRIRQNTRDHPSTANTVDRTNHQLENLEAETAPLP

[7] = DRUGMATRIX: Phorbol Ester radioligand binding (ligand: [3H] PDBu); assay type: cell membranes, Mus musculus, ICR, Brain, Membrane; conditions: Not Active = under 50% inhibition at 10 µM
[8] = DRUGMATRIX: Phosphodiesterase PDE3 enzyme inhibition (substrate: [3H]cAMP + cAMP); assay type: tissue-based, Homo sapiens; conditions: platelet; Not Active = under 50% inhibition at 10 µM
Caspase-1 = molecular target: T4, Caspase-1 (Homo sapiens, UniProt P29466); design: species or system Escherichia coli
T4 sequence (P29466 whole entry): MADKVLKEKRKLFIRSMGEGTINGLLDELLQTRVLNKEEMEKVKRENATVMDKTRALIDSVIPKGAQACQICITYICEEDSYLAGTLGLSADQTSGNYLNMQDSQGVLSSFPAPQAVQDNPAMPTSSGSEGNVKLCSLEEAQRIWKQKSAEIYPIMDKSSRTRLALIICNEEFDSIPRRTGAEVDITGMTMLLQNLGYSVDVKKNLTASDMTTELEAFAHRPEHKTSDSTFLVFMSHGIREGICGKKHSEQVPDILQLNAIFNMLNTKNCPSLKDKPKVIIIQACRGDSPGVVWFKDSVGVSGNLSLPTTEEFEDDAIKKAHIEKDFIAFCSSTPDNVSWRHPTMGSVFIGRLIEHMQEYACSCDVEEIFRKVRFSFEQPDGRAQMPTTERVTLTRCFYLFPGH

[9] = molecular target: Mitogen-activated protein kinase 1 (Homo sapiens, UniProt P28482); assay: DRUGMATRIX: Protein Serine/Threonine Kinase, ERK2 enzyme inhibition (substrate: Myelin Basic Protein); design: species or system Escherichia coli; conditions: Not Active = under 50% inhibition at 10 µM
Mitogen-activated protein kinase 1, sequence (P28482 whole entry): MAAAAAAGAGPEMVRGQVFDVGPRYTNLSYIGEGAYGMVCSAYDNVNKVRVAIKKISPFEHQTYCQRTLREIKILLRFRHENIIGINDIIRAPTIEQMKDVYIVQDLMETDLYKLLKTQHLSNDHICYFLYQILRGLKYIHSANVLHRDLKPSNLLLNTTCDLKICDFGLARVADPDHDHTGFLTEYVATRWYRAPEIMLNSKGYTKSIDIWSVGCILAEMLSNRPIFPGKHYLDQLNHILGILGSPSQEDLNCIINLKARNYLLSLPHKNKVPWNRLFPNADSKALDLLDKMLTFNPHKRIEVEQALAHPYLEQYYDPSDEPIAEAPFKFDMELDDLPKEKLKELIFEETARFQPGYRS

[10] = molecular target: Receptor tyrosine-protein kinase erbB-2 (Homo sapiens, UniProt P04626); assay: biochemical; assay type: cell-based, Insect cells; conditions: insect cells
Receptor tyrosine-protein kinase erbB-2, sequence (P04626 whole entry): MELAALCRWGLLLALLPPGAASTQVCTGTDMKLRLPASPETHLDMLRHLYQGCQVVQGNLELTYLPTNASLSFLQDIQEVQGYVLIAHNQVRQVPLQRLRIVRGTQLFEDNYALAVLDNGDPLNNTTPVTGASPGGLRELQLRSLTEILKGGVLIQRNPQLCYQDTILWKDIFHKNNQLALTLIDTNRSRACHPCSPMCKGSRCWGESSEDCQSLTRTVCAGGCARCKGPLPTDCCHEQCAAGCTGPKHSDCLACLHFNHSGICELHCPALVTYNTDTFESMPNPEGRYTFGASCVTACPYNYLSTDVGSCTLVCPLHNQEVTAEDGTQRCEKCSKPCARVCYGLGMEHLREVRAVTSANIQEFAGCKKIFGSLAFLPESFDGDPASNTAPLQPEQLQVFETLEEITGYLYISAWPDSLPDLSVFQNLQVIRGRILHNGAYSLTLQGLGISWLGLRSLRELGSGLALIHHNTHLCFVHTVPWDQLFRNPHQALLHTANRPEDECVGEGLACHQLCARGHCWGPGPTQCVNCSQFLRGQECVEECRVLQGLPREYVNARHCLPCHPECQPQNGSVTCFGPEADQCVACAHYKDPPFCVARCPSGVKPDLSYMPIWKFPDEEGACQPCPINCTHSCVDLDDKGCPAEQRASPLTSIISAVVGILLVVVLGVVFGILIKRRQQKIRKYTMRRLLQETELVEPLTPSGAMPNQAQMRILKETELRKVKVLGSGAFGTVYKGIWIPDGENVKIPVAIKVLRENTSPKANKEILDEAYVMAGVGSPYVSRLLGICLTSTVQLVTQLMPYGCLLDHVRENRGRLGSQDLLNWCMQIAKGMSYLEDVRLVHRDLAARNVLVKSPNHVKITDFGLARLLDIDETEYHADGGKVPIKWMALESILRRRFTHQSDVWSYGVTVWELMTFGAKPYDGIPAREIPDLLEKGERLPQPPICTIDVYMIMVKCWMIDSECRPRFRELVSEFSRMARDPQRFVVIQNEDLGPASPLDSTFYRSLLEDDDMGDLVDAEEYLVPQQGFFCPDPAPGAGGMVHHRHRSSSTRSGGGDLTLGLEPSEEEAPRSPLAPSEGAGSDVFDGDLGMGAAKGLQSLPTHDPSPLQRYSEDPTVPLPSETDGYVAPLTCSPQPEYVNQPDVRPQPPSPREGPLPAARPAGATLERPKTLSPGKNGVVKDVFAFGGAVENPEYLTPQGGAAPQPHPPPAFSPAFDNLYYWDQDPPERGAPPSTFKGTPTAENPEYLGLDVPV

Adenosine receptor A3 = molecular target: T5, Adenosine receptor A3 (Homo sapiens, UniProt P0DMS8); assay type: cell membranes, CHO-K1, Membrane; conditions: cho-k1
T5 sequence (P0DMS8 whole entry): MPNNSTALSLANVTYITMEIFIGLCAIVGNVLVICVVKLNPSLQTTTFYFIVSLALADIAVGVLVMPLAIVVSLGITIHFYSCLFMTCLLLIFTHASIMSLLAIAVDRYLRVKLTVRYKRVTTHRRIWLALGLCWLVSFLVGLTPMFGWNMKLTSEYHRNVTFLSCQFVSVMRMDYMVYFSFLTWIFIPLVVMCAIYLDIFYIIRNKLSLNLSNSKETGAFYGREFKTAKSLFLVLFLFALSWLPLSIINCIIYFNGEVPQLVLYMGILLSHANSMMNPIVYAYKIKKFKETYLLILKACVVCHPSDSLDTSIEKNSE

Beta-3 adrenergic receptor, sequence (P13945 whole entry): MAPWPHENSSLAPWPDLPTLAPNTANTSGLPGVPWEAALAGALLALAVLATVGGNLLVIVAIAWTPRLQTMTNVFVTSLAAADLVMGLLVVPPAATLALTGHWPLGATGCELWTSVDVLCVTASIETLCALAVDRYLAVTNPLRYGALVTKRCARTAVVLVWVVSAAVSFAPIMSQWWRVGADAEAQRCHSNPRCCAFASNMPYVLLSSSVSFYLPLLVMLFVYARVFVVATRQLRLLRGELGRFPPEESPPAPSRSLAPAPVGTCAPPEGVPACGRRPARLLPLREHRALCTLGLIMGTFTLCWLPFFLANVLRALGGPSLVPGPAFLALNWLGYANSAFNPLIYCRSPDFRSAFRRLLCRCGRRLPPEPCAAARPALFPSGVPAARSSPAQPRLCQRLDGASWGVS

Row | SMILES | IC50 ([1]; hek293) | IC50 [2] | IC50 (B2 bradykinin receptor) | IC50 [3] | IC50 [4] | Ki [4] | IC50 (Vasopressin V1a receptor) | IC50 (Carbonic anhydrase 2) | IC50 [5] | IC50 [6] | Ki [6] | IC50 (Mu-type opioid receptor) | IC50 [7] | Ki [7] | IC50 [8] | Ki [8] | IC50 (Caspase-1) | IC50 [9] | IC50 [10] | IC50 (Adenosine receptor A3) | other results
1 | CCOC(=O)[C@H](CCc1ccccc1)N[C@@H](C)C(=O)N1[C@H](C(=O)O)C[C@@H]2CCC[C@@H]21 | Not Active | Not Active | Not Active | Not Active | Not Active | Not Active | Not Active | Not Active | Not Active | Not Active | Not Active | Not Active | Not Active | Not Active | Not Active | Not Active | Not Active | Not Active | Not Active | Not Active | Ki [3]: Not Active
2 | CC(C)(C)NC(=O)[C@@H]1CN(Cc2cccnc2)CCN1C[C@@H](O)C[C@@H](Cc1ccccc1)C(=O)N[C@H]1c2ccccc2C[C@H]1O.O | Not Active | Not Active | Not Active | Not Active | Not Active | Not Active | Not Active | Not Active | Not Active | Not Active | Not Active | Not Active | Not Active | Not Active | Not Active | Not Active | Not Active | Not Active | Not Active | Not Active | Ki [3]: Not Active
3 | CC1(C)[C@H]2CC[C@]1(C)C(=O)C2 [(-)-CAMPHOR] | Not Active | Not Active | Not Active | Not Active | Not Active | Not Active | Not Active | Not Active | Not Active | Not Active | Not Active | Not Active | Not Active | Not Active | Not Active | Not Active | Not Active | Not Active | Not Active | Not Active | Ki [3]: Not Active
4 | CC(C)(C)NCC(O)c1ccc(O)c(CO)c1 (stereo not drawn) [ALBUTEROL] | Not Active | Not Active | Not Active | Not Active | Not Active | Not Active | Not Active | Not Active | Not Active | Not Active | Not Active | Not Active | Not Active | Not Active | Not Active | Not Active | Not Active | Not Active | Not Active | Not Active | Ki [3]: Not Active
5 | CN(C)CCCN1c2ccccc2CCc2ccc(Cl)cc21 [CLOMIPRAMINE] | Not Active | Not Active | Not Active | – | – | – | Not Active | Not Active | Not Active | – | – | Not Active | – | – | – | – | Not Active | Not Active | Not Active | Not Active | –
6 | CN1CCN2c3ccccc3Cc3ccccc3C2C1 (stereo not drawn) [MIANSERIN] | Not Active | Not Active | Not Active | – | – | – | Not Active | Not Active | Not Active | – | – | Not Active | – | – | – | – | Not Active | Not Active | Not Active | Not Active | –
7 | CC(C)(O)c1ccccc1CC[C@@H](SCC1(CC(=O)O)CC1)c1cccc(/C=C/c2ccc3ccc(Cl)cc3n2)c1 [MONTELUKAST] | – | Not Active | Not Active | – | – | – | Not Active | Not Active | Not Active | – | – | Not Active | – | – | – | – | Not Active | Not Active | Not Active | – | IC50 ([1]; read-out: IC50): 4300 nM; Ki ([1]; read-out: Ki): 3200 nM
8 | COC(=O)C1=C(C)NC(C)=C(C(=O)OC)C1c1ccccc1[N+](=O)[O-] [NIFEDIPINE] | Not Active | Not Active | Not Active | – | Not Active | Not Active | Not Active | Not Active | Not Active | Not Active | Not Active | Not Active | Not Active | Not Active | Not Active | Not Active | Not Active | Not Active | Not Active | – | IC50 ([3]; read-out: IC50): 48 nM; Ki ([3]; read-out: Ki): 31 nM
9 | CSc1ccc2c(c1)N(CCC1CCCCN1C)c1ccccc1S2 (stereo not drawn) [THIORIDAZINE] | Not Active | Not Active | Not Active | – | – | – | Not Active | Not Active | Not Active | – | – | Not Active | – | – | – | – | Not Active | Not Active | Not Active | Not Active | –
